Measurements: patent US5756763A, “Pyrrolidine derivatives” (Zaidan Hojin Biseibutsu Kagaku Kenkyukai, priority 1993, dated 1998)

Molecular target: T1, prolyl endopeptidase (Sus scrofa, UniProt P23687)
T1 construct: swine kidney-derived prolyl endopeptidase; from tissue; host or cells: swine kidney
Test: Enzyme inhibitory action on swine kidney-derived prolyl endopeptidase (Z-Gly-Pro-β-naphthylamide substrate)
Format: biochemical
Conditions: for IC50: swine kidney prolyl endopeptidase, 0.1 mM substrate, 37° C., 30 minutes, pH 7.5; for prolyl endopeptidase inhibition activity (in words): in vitro, qualitative statement
Procedure: Using 0.1 mM of benzyolxycarbonylglycylproline-β-naphthylamide as substrate and swine kidney-derived prolyl endopeptidase as enzyme, the enzyme was acted on the substrate at 37° C. for 30 minutes in 0.025 M Tris(hydroxymethyl)methane amine-hydrochloric acid (pH 7.5) solution. Fast Garnet was added to form a color and absorbance was measured at 525 nm. The inhibitory activity is expressed in terms of concentration required for 50% inhibition (IC50).

T1 sequence (P23687 whole entry): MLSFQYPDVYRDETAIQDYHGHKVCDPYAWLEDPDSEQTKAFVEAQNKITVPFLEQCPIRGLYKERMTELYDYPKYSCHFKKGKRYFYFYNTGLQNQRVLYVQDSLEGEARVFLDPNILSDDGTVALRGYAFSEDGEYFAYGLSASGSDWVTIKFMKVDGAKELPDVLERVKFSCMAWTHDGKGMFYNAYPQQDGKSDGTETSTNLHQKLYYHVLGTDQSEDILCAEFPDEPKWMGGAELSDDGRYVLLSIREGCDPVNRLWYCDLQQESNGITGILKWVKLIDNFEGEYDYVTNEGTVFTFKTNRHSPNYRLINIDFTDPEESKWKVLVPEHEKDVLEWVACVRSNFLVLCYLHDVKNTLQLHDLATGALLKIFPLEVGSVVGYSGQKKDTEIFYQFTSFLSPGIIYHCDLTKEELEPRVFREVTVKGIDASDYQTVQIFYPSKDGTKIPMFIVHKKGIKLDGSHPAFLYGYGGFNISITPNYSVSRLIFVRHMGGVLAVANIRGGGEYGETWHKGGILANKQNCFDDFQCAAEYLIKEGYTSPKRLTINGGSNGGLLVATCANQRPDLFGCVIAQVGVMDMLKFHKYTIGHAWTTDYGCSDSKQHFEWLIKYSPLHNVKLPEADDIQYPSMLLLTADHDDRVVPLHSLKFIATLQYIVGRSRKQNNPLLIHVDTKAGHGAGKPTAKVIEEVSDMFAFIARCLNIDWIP

SMILES | IC50 | prolyl endopeptidase inhibition activity (in words)
CC(C)C(NC(=O)OCc1ccccc1)C(=O)N1CCCC1C(=O)C(=O)NC1CCCCC1 (centres unmarked) [Example 4, N-cyclohexyl-2-oxo-2-[2-(1-(N-benzyloxycarbonylvalyl)pyrrolidinyl)]acetamide] | 1.09 nM | –
CC(C)C(NC(=O)c1cccc(Oc2ccccc2)c1)C(=O)N1CCCC1C(=O)C(=O)NC1CCCCC1 (centres unmarked) [Example 7, N-cyclohexyl-2-oxo-2-[2-(1-(N-(3-phenoxybenzoyl)valyl)pyrrolidinyl)]acetamide] | 0.962 nM | –
CC(C)C(NC(=O)c1ccc2ccccc2n1)C(=O)N1CCCC1C(=O)C(=O)NC1CCCCC1 (centres unmarked) [Example 9, N-Cyclohexyl-2-oxo-2-[2-(1-(N-(2-quinolinecarbonyl)valyl)pyrrolidinyl)]acetamide] | 1.34 nM | –
O=C(NC1CCCC1)C(=O)C1CCCN1C(=O)C(Cc1ccccc1)NC(=O)c1cccc(Oc2ccccc2)c1 (centres unmarked) [Example 13, N-Cyclopentyl-2-oxo-2-[2-(1-(N-(3-phenoxybenzoyl)phenylalanyl)pyrrolidinyl)]acetamide] | 1.48 nM | potent inhibition activity on almost the same level
CC(C)(C)OC(=O)NC(Cc1ccccc1)C(=O)N1CCCC1C(=O)C(=O)NC1CCCCC1 (centres unmarked) [Example 15, N-Cyclohexyl-2-oxo-2-[2-(1-(N-t-butoxycarbonylphenylalanyl)pyrrolidinyl)]acetamide] | 3.18 nM | –
O=C(NC1CCCCC1)C(=O)C1CCCN1C(=O)C(Cc1ccccc1)NC(=O)c1cccs1 (centres unmarked) [Example 18, N-Cyclohexyl-2-oxo-2-[2-(1-(N-(2-thenoyl)phenylalanyl)pyrrolidinyl)]acetamide] | 2.28 nM | –
O=C(COc1ccccc1)NC(Cc1ccccc1)C(=O)N1CCCC1C(=O)C(=O)NC1CCCCC1 (centres unmarked) [Example 20, N-Cyclohexyl-2-oxo-2-[2-(1-(N-phenoxyacetylphenylalanyl)pyrrolidinyl)]acetamide] | 1.58 nM | –
O=C(NC1CCCCC1)C(=O)C1CCCN1C(=O)C(Cc1ccccc1)NC(=O)c1ccc2ccccc2c1 (centres unmarked) [Example 22, N-Cyclohexyl-2-oxo-2-[2-(1-(N-(2-naphthoyl)phenylalanyl)pyrrolidinyl)]acetamide] | 3.23 nM | –
O=C(Cc1ccccn1)NC(Cc1ccccc1)C(=O)N1CCCC1C(=O)C(=O)NC1CCCCC1 (centres unmarked) [Example 24, N-Cyclohexyl-2-oxo-2-[2-(1-(N-(2-pyridyl)acetylphenylalanyl)pyrrolidinyl)]acetamide] | 2.24 nM | –
O=C(NC1CCCCC1)C(=O)C1CCCN1C(=O)C(Cc1ccccc1)NC(=O)c1cccc(Oc2ccccc2)c1 (centres unmarked) [Example 28, N-Cyclohexyl-2-oxo-2-[2-(1-(N-(3-phenoxybenzoyl)phenylalanyl)pyrrolidinyl)]acetamide] | 1.14 nM | potent inhibition activity on almost the same level
O=C(C=Cc1ccco1)NC(Cc1ccccc1)C(=O)N1CCCC1C(=O)C(=O)NC1CCCCC1 (centres unmarked) [Example 31, N-Cyclohexyl-2-oxo-2-[2-(1-(N-(3-(2-furyl)acryloyl)-phenylalanyl)pyrrolidinyl)]acetamide] | 6.31 nM | –
O=C(CCC1CCCCC1)NC(Cc1ccccc1)C(=O)N1CCCC1C(=O)C(=O)NC1CCCCC1 (centres unmarked) [Example 33, N-Cyclohexyl-2-oxo-2-[2-(1-(N-(3-cyclohexylpropionyl)-phenylalanyl)pyrrolidinyl)]acetamide] | 0.981 nM | –
O=C(NC1CCCCCC1)C(=O)C1CCCN1C(=O)C(Cc1ccccc1)NC(=O)c1cccc(Oc2ccccc2)c1 (centres unmarked) [Example 41, N-Cycloheptyl-2-oxo-2-[2-(1-(N-(3-phenoxybenzoyl)-phenylalanyl)pyrrolidinyl)]acetamide] | 1.38 nM | potent inhibition activity on almost the same level
O=C(NC1CCCCC1)C(=O)C1CCCN1C(=O)C(Cc1ccccc1)NC(=O)c1ccccc1 (centres unmarked) [Example 43, N-Cyclohexyl-2-oxo-2-[2-(1-(N-benzoylphenylalanyl)pyrrolidinyl)]acetamide] | 1.89 nM | –
